{
  "source": "patent US20230310505A1",
  "about": "“COMPOSITION FOR PREVENTING HEARING LOSS CONTAINING MESENCHYMAL STEM CELLS OR EXOSOMES DERIVED THEREFROM AS ACTIVE INGREDIENT” (UNIVERSITY INDUSTRY FOUNDATION, YONSEI UNIVERSITY WONJU …, priority 2020, published 2023)",
  "test_system": "outer hair cells (OHC) and inner hair cells (IHC) of cochlear explants",
  "assay": "Ototoxic hearing loss induction: cisplatin treatment of cochlear explants, hair cell viability by immunofluorescence",
  "type": "cell-based, ICR mice",
  "conditions": "cisplatin for 24 hours",
  "experimental": "It is also known that damage to outer hair cells (OHC) and inner hair cells (IHC) of the cochlea leads to hearing loss.\nAfter completion of the treatment, the cochlear explants were fixed with PBS containing 4% formalin for 15 minutes and washed with PBS three times. Next, after incubation with PBS containing 0.1% Triton X-100 for 10 minutes, blocking was performed with PBS containing 4% BSA for 30 minutes. Thereafter, incubation was performed for 1 hour with a rabbit anti-mouse myosin 7a primary antibody (1:400, abcam). After washing with PBS three times, incubation was performed for 1 hour with goat anti-rabbit IgG (H+L) Alexa Fluor 488 antibody (1:500, abcam) with Phalloidine Alexa Fluor 647 (1:1000, abcam). After washing with PBS, the coverslip was transferred to a slide and a drop of Fluoroshield with DAPI (Sigma, USA) was gently applied to the coverslip. The coverslip was sealed with clear nail polish and observed under a fluorescence microscope (FIG. 1B), and the number of OHCs and IHCs was measured to calculate the cell viability (FIG. 1C).",
  "data": [
    {"molecule": "N.N.[Cl][Pt][Cl]", "note": "[cisplatin]", "values": [
      {"measurement": "EC50", "setting": "apical turn", "result": 100, "unit": "µM"},
      {"measurement": "EC50", "setting": "middle turn and basal turn", "result": 80, "unit": "µM"}
    ]}
  ]
}
